Measurements from patent publication US20050020638A1, “Method of stabilizing lansoprazole” (priority 2003, published 2005).
Like-named read-outs stand apart in the source and are kept apart here.

Legend:
[1] = Stability of stabilized vs. non-stabilized lansoprazole on storage (HPLC impurities and color); assay type: physicochemical; conditions: 40 °C, 75% humidity
Procedure: Chromatographic purity method of lansoprazole is detailed in the monograph in USP Forum Vol. 26 (5) [September-October 2000]. HPLC condition: Column C18 • Mobile phase: Gradient of triethylamine in water with acetonitrile • Flow: 0.8 ml/min • Detection: 285 nm Karl Fisher method for water determination is the USP method, 921. Ia, with the solvent: pyridine and ethylene glycol 9:1 as detailed in USP Forum Vol. 26 (5) [September-October 2000].

[2] = cited from earlier work
[3] = 1 month, lansoprazole of Example 2
[4] = 3 months, 'solvent free' lansoprazole of Example 3

Compound | LNP-SO2 (sulfone derivative) after storage [1, 3] [%] | LNPS (sulfide derivative) after storage [1, 3] [%] | Total impurities after storage [1, 3] [%] | Color after storage [1, 4] | LNP-SO2 (sulfone derivative) after storage [1, 4] [%] | LNPS (sulfide derivative) after storage [1, 4] [%] | Total impurities after storage [1, 4] [%] | Color after storage [1, 3] | Color after storage ([2]; 4 months at 40 °C and 75% room humidity) | Color after storage ([2]; 4 months at 40 °C, absence of humidity)
Cc1c(OCC(F)(F)F)ccnc1C[S+]([O-])c1nc2ccccc2[nH]1 (stereo not shown) [Lansoprazole not stabilized with ammonia, 2-[[3-methyl-4-(2,2,2-trifluoroethoxy)-2-pyridyl]methyl]sulfinyl-1H benzimidazole] | 0.04 | 0.03 | 0.15 | Brownish | 0.04 | 0.06 | 0.31 |  |  | 
Cc1c(OCC(F)(F)F)ccnc1C[S+]([O-])c1nc2ccccc2[nH]1 (stereo not shown) [Lansoprazole stabilized with ammonia, 2-[[3-methyl-4-(2,2,2-trifluoroethoxy)-2-pyridyl]methyl]sulfinyl-1H benzimidazole] | 0.03 |  | 0.05 | white | 0.02 | 0.03 | 0.08 | white |  | 
Cc1c(OCC(F)(F)F)ccnc1C[S+]([O-])c1nc2ccccc2[nH]1 (stereo not shown) [lansoprazole, (2-[[[3-methyl-4-(2,2,2-trifluoro-ethoxy)-2-pyridinyl]methyl]sulfinyl]-1H-benzimidazole)] |  |  |  |  |  |  |  |  | pale brown | pale yellowish brown
